Measured values: patent US20050158321A1, “Treatment of rheumatoid arthritis with galectin-3 antagonists” (Entelos, Inc., priority 2003, published 2005)

Columns and labels:
rheumatoid arthritis = details: methotrexate treatment, known effect; cited from earlier work
[1] = test system: peripheral blood monocytes from healthy donors and rheumatoid arthritis patients; assay: Monocyte chemotaxis assay (96-well chemotaxis plates); format: cell-based, human; details: for migration of monocytes in combination with galectin-3: FIG. 14B, 14C
Method: Peripheral blood mononuclear cells (PBMCs) were isolated from 6 healthy volunteer donors and 6 rheumatoid arthritis (RA) patients following informed consent and in accordance with protocols approved by the AMC Medical Ethics committee. Donor blood was diluted with cold PBS and PBMCs isolated by centrifugation over Ficoll. The PBMC layer was recovered and washed twice with PBS. Cells were counted, and monocytes isolated using a Dynal monocytes negative isolation kit as per the manufacturer's instructions. Monocytes were resuspended at 2×10^6 cells/ml in RPMI medium containing 0.5% fetal calf serum.
Chemotaxis assays were performed using 96-well disposable chemotaxis plates (Neuroprobe, 8 μm diameter pore size). Wells were preincubated for 1 hour at 37° C. with medium alone (RPMI containing 0.5% fetal calf serum), murine anti-human galectin-3 antibody B2C10 (0.1, 1 or 3 μg/ml) or lactose (10 mM). Lactose is a non-specific inhibitor of galectin-3. Purified recombinant human galectin-3 (1, 10 or 100 nM) was also included in the preincubation step. 5×10^4 monocytes obtained from healthy donors were added to the top of the filter in triplicate wells and cells allowed to migrate for 90 minutes at 37° C. The filter was then washed with PBS, and adhering non-migrating cells removed from the top of the filter by wiping. Migrating cells within the filter Were visualized by staining with crystal violet solution and washing with water. Following air-drying overnight, a computer digital imaging analyzer was used to capture 20 high-powered (400× magnification) fields encompassing the complete transwell filter, and migrating cells counted manually. FIG. 12 provides the relative amount migration (chemotaxis) in the presence of varying levels of galectin-3 and inhibitors of galectin-3 activity (B2C10 and lactose).
In a second experiment, wells were preincubated for 1 hour at 37° C. with medium alone (RPMI containing 0.5% fetal calf serum), murine anti-human galectin-3 antibody B2C10 (0.1, 1 or 3 μg/ml) or lactose (10 mM). Lactose is a non-specific inhibitor of galectin-3. Purified recombinant human galectin-3 (1, 10 or 100 nM) was also included in the preincubation step. 5×10^4 monocytes obtained from rheumatoid arthritis patients were added to the top of the filter in triplicate wells and cells allowed to migrate for 90 minutes at 37° C. The filter was then processed as described above and migrating cells were counted manually. […]
Monocytes from 6 rheumatoid arthritis patient were stimulated with 6 different synovial fluids and monocyte chemotaxis was measured as described above in the presence of different concentrations of galectin-3 blocking antibody. […]

[2] = test system: arthritis induced by monoclonal antibodies raised against type II collagen, plus lipopolysaccharide; assay: Inflammation, Collagen Arthritis, mAb in Mice (hind paw volume); format: in vivo, BALB/c mice
Method: Galectin-3 Ab was evaluated for possible anti-inflammatory activity in BALB/c mice with arthritis induced by monoclonal antibodies (mAb) raised against type II Collagen, plus lipoplysaccharide. Galectin-3 Ab (1, 0.5 and 0.25 mg/mouse×3) was administered intraperitoneally once daily for 3 consecutive days starting on day 3. Volumes of both hind paws were measured on days 5, 7, 10, 14 and 17 and the sum of both hind paw volumes was calulated. A 30% percent or more reduction (−30%) relative to the vehicle-treated group indicates significant.
Galectin-3 Ab, B2C10 from Pharmingen, was dissolved in distilled water. Test substance at 1, 0.5 and 0.25 mg/mouse and vehicle were each administered intraperitoneally once daily for 3 consecutive days starting on day 3. The dosing volume was 0.2 ml/mouse for the test compound or 10 ml/kg (PO) for indomethacin. All treatments are summarized below:
Collagen Arthritis, mAb Groups of 7 BALB/c strain mice, 6-7 weeks of age, were used for the induction of arthritis by monoclonal antibodies (mAbs) raised against type II collagen, plus lipopolysaccharide (LPS). A combination of 4 different mAbs (D8, F10, DI-2G and A2) totaling 4 mg/mouse was administered to the animals intravenously on day 0, followed by intravenous challenge with […] of LPS 72 hours later (day3). From one hour after LPS injection, Galectin-3 Ab (1, 0.5 and 0.25 mg/mouse) and vehicle were each administered intraperitoneally once daily for 3 consecutive days starting on day 3. Whereas, indomethacin which served as the positive control was administered orally (3 mg/kg) once daily for 3 consecutive days at the same time schedule as test compound. For each animal, volumes of both hind paws were measured using a plethysmometer with water cell (12 mm diameter) on Days 0, 5, 7, 10, 14 and 17. Percent inhibition of increase in volume was calculated by the following formula: Inhibition (%): [1−(Tn−T0)/(Cn−C0)]×100% • Where: • C0 (Cn): volume of day 0 (day n) in vehicle control • T0 (Tn): volume of day 0 (day n) in test compound-treated group.
Reduction of edema in the hind paws by 30% or more (^3 30%) is considered significant. In addition, body weight was documented during the testing period of day 0, 5, 7, 10, 14 and 17 in each animal percentage of body weight of each compound group at time points were calculated referring to the vehicle control group at each measurement day as 100%.

CN(Cc1cnc2nc(N)nc(N)c2n1)c1ccc(C(=O)N[C@@H](CCC(=O)O)C(=O)O)cc1 [Methotrexate, methotrexate]
decrease of synovial cell density (rheumatoid arthritis): approximately 30% | decrease of the concentration of IL-6 in synovial tissue (rheumatoid arthritis): 93% | decrease of the rate of cartilage degradation (rheumatoid arthritis): approximately 15%

Galectin-3: purified recombinant human galectin-3
induction of chemotactic activity, alone ([1]; healthy donor or RA peripheral blood monocytes, 1, 10 or 100 nM): does not reproducibly induce chemotactic activity | monocyte chemotaxis in the presence of 1 ng/ml fMLP ([1]; single healthy donor, FIG. 14A): increases monocyte chemotaxis in a concentration dependent manner

SDF-1: Stromal cell-Derived Factor-1, chemotactic cytokine
migration of monocytes in combination with galectin-3 ([1]; single healthy donor): induce migration

COc1ccc2c(c1)c(CC(=O)O)c(C)n2C(=O)c1ccc(Cl)cc1 [Indomethacin, indomethacin]
(%) Reduction of Edema vs. Vehicle Control ([2]; Day 5, PO 3 mg/kg × 3, parenthesis = significant): (94) % | (%) Reduction of Edema vs. Vehicle Control ([2]; Day 5, PO 3 mg/kg × 3, parenthesis = significant, listed as indomethacin): 94% | (%) Reduction of Edema vs. Vehicle Control ([2]; Day 7, PO 3 mg/kg × 3, parenthesis = significant): (70) % | (%) Reduction of Edema vs. Vehicle Control ([2]; Day 7, PO 3 mg/kg × 3, parenthesis = significant, listed as indomethacin): 70% | (%) Reduction of Edema vs. Vehicle Control ([2]; Day 10, PO 3 mg/kg × 3, parenthesis = significant): (85) % | (%) Reduction of Edema vs. Vehicle Control ([2]; Day 10, PO 3 mg/kg × 3, parenthesis = significant, listed as indomethacin): 85% | (%) Reduction of Edema vs. Vehicle Control ([2]; Day 14, PO 3 mg/kg × 3, parenthesis = significant): (85) % | (%) Reduction of Edema vs. Vehicle Control ([2]; Day 14, PO 3 mg/kg × 3, parenthesis = significant, listed as indomethacin): 85% | (%) Reduction of Edema vs. Vehicle Control ([2]; Day 17, PO 3 mg/kg × 3, parenthesis = significant): (84) % | (%) Reduction of Edema vs. Vehicle Control ([2]; Day 17, PO 3 mg/kg × 3, parenthesis = significant, listed as indomethacin): 84%

MCP-1: Monocyte Chemotactic Protein-1, chemotactic cytokine
migration of monocytes in combination with galectin-3 ([1]; single healthy donor): induce migration
